Test results: publication PMC3162038 (Journal of the American Chemical Society, 2011)

Legend:
Type in all cases: biochemical
VldH = biological target: T1, VldH (Streptomyces hygroscopicus, UniProt Q15JF8); assay: ESI-MS of product; conditions: 5 mM substrate, 10 mM MgCl2, 50 mM Tris-HCl pH 7.5, 1.5 h
T1 sequence (Q15JF8 1-213): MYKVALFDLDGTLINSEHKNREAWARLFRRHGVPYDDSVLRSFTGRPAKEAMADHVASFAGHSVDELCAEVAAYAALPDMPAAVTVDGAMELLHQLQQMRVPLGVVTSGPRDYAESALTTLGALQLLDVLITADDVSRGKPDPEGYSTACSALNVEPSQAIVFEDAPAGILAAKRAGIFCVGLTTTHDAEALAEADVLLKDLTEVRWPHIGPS

OtsA = biological target: T2, OtsA (Escherichia coli, UniProt P31677); assay: ESI-MS of product; conditions: UDP-glucose and glucose 6-phosphate as substrates; 5 mM MgCl2, 50 mM Tris-HCl pH 7.5
T2 sequence (P31677 1-474): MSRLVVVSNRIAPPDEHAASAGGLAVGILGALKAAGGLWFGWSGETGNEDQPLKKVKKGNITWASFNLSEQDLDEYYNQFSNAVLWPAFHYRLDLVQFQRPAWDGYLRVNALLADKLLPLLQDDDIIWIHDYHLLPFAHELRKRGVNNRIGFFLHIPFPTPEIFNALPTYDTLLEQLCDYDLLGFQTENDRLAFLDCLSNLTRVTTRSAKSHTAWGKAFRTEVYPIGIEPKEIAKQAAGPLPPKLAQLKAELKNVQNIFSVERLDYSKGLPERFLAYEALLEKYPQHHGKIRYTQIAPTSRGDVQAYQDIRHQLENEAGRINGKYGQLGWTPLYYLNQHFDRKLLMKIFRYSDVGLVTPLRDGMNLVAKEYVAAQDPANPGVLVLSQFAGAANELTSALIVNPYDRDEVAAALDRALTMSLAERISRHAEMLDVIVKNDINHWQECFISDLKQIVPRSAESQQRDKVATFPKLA

VldB = biological target: T3, VldB (Streptomyces hygroscopicus, UniProt Q15JG4); assay: HPLC and ESI-MS of product; conditions: valienol 1-phosphate as co-substrate; 1 mM Mg2+
T3 sequence (Q15JG4 1-373): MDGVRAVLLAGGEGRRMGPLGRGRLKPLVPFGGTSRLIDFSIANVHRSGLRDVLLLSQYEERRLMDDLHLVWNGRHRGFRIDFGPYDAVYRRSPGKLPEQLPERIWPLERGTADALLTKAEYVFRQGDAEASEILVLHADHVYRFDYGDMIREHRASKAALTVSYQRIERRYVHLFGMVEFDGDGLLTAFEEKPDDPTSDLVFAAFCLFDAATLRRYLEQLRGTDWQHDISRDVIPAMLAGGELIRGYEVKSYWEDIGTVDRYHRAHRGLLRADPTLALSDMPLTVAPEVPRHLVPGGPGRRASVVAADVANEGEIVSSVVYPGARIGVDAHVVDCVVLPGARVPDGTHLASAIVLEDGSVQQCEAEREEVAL

Row | Compound | ESI-MS of product (VldH) | ESI-MS of product (OtsA) | HPLC and ESI-MS of product (VldB)
1 | O=P(O)(O)OC[C@H]1O[C@H](O[C@H]2O[C@H](CO)[C@@H](O)[C@H](O)[C@H]2O)[C@H](O)[C@@H](O)[C@@H]1O [trehalose 6-phosphate] | VldH was able to catalyze dephosphorylation of trehalose 6-phosphate to give trehalose | the recombinant OtsA can catalyze the formation of trehalose 6-phosphate | –
2 | Nc1nc2c(ncn2[C@@H]2O[C@H](COP(=O)(O)OP(=O)(O)OP(=O)(O)O)[C@@H](O)[C@H]2O)c(=O)[nH]1 [GTP] | – | – | effectively catalyzes the conversion of valienol 1-phosphate to GDP-valienol
